Source: EP0005219A1, “Arylimidazoles, their synthesis and pharmaceutical or veterinary preparations containing them” (A/S Dumex (Dumex Ltd.), priority 1978, dated 1979)
Like-named read-outs stand apart in the source and are kept apart here.

Assays:
[1] = system: mice; test: Writhing test in mice (acetic acid induced writhing), analgesic activity; assay type: in vivo; settings: for ED50: Mus musculus, po, 20 min, read-out: Analgesic ED50 Writhing test; for analgesic activity compared with the compounds of the present invention: statement in words, refers to the pharmacological tests of Table 1
Method: Writhing test in mice. (SPF females of the strain NMRI/BOM, weighing 20-25 g). The test substance was administered by gavage ½ hour prior to an intraperitoneal injection of acetic acid. The number of writhing movements in 20 minutes was counted.

[2] = in vivo; assay type: in vivo; settings: mouse, in vivo, po, read-out: Acute toxicity LD50
[3] = system: rats; test: Randall-Selitto test in rats (analgesia-meter, brewer's yeast paw), analgesic activity; assay type: in vivo; settings: Rattus norvegicus, po, read-out: Analgesic ED50 Analgesia-meter
Method: 2. Randall-Selitto test in rats. (SPF males of the strain Sprague-Dawley, weighing 90-100 g). The test was performed on the whole as described by Randall and Selitto: Arch. Int. Pharmacodyn. […] An analgesia-meter of the make Ugo Basile was used and the test substance was administered by gavage 2 hours after injection of a suspension of brewer's yeast into the rat paw.

[4] = system: rats; test: Test for antiinflammatory activity in rats (carrageenin paw); assay type: in vivo; settings: Rattus norvegicus, po, read-out: Antiinflam-matory test ED50
Method: SPF males of the strain Sprague-Dawley, weighing ~ 150 g were used. The test was performed according to Winter et al.: Proc. Soc. […] The test substance was given by gavage 1 hour prior to injection of a carrageenin-suspension into the rat paw.

[5] = Ulcerogenic activity in rats; settings: rat, in vivo, po
Method: SPF males of the strain Sprague-Dawley weighing 180-250 g were used. 5 hours after administration by gavage of the test substance the rats were killed by an overdose of ether. The stomachs were removed and opened along the greater curvature. The number of ulcers was assessed and compared to control rats.

[6] = molecular target: PG-synthetase; test: Prostaglandin-synthetase inhibition test; assay type: biochemical; settings: AA = Arachidonic acid
[7] = system: mice; test: in vivo; assay type: in vivo; settings: statement in words, refers to the pharmacological data of Table 1
[8] = mice, by gavage ½ hour prior to intraperitoneal acetic acid, writhing movements in 20 minutes
[9] = mice, by gavage, observation period 168 hours
[10] = rats, by gavage 2 hours after brewer's yeast injection into the paw
[11] = rats, by gavage 1 hour prior to carrageenin injection into the paw
[12] = rats, by gavage, stomachs examined 5 hours after administration, read-out: Ulcerogenic activity ED50

Row | SMILES | ED50 [1, 8] [mg/kg] | LD50 at 168 h [2, 9] [mg/kg] | ED50 [3, 10] [mg/kg] | ED50 [4, 11] [mg/kg] | LD50 at 168 h [2] [mg/kg] | TD50 at 5 h [5] [mg/kg] | Inhibition of PG-synthetase IC50 [6] | analgesic activity compared with the compounds of the present invention [1] | toxicity compared with the compounds of the present invention [7] | ED50 [1] [mg/kg] | ED50 ([3]; 2 h) [mg/kg] | ED50 [4] [mg/kg] | TD50 at 5 h [5, 12] [mg/kg]
1 | COc1ccc(-c2nc(-c3ccc(F)cc3)n(CCC(=O)O)c2-c2ccc(OC)cc2)cc1 [Compound 1, 1-(2-Carboxyethyl)-2-(p-fluorphenyl)-4,5-bis(p-methoxyphenyl)imidazole, reference compound] | > 200 | > 2000 | – | – | – | – | – | – | – | – | – | – | –
2 | COc1ccc(-c2nc(-c3ccccc3F)[nH]c2-c2ccc(OC)cc2)cc1 [Compound 2, 2-(o-Fluorphenyl)-4,5-bis(p-methoxyphenyl)imidazole] | 15 | – | 0.3 | 130 | > 2000 | 590 | – | – | – | – | – | – | –
3 | COc1ccc(-c2nc(-c3cccc(F)c3)[nH]c2-c2ccc(OC)cc2)cc1 [Compound 3, 2-(m-Fluorphenyl)-4,5-bis(p-methoxyphenyl)imidazole] | 3.2 | – | 0.25 | 38 | > 2000 | 870 | – | – | – | – | – | – | –
4 | COc1ccc(-c2nc(-c3ccc(F)cc3)[nH]c2-c2ccc(OC)cc2)cc1 [Compound 4, 2-(p-Fluorphenyl)-4,5-bis(p-methoxyphenyl)imidazole] | 5 | – | 0.3 | 14 | 1900 | 360 | 0,18 µg/10 µg AA | – | – | – | – | – | –
5 | COc1ccc(-c2nc(-c3cccc(F)c3F)[nH]c2-c2ccc(OC)cc2)cc1 [Compound 5, 2-(2,3-Difluorphenyl)-4,5-bis(p-methoxyphenyl) imidazole] | 4.6 | – | 0.55 | 120 | > 2000 | 800 | 0,21 µg/10 µg AA | – | – | – | – | – | –
6 | COc1ccc(-c2nc(-c3ccc(F)cc3F)[nH]c2-c2ccc(OC)cc2)cc1 [Compound 6, 2-(2,4-Difluorphenyl)-4,5-bis(p-methoxyphenyl)imidazole] | 4 | – | 0.8 | 47 | > 2000 | > 300 | 0,27 µg/10 µg AA | – | – | – | – | – | –
7 | COc1ccc(-c2nc(-c3cc(F)ccc3F)[nH]c2-c2ccc(OC)cc2)cc1 [Compound 7, 2-(2,5-Difluorphenyl)-4,5-bis(p-methoxyphenyl)imidazole] | 16 | – | 0.55 | 110 | > 2000 | 1000 | 1,71 µg/10 µg AA | – | – | – | – | – | –
8 | COc1ccc(-c2nc(-c3c(F)cccc3F)[nH]c2-c2ccc(OC)cc2)cc1 [Compound 8, 2-(2,6-Difluorphenyl)-4,5-bis(p-methoxyphenyl)imidazole] | 6.8 | – | 0.55 | 300 | > 2000 | > 300 | 0,13 µg/10 µg AA | – | – | – | – | – | –
9 | COc1ccc(-c2nc(-c3ccc(F)c(F)c3)[nH]c2-c2ccc(OC)cc2)cc1 [Compound 9, 2-(3,4-Difluorphenyl)-4,5-bis(p-methoxyphenyl)imidazole] | 1.9 | > 2000 | – | 15 | – | – | – | – | – | – | – | – | –
10 | COc1ccc(-c2nc(-c3cc(F)cc(F)c3)[nH]c2-c2ccc(OC)cc2)cc1 [Compound 10, 2-(3,5-Difluorphenyl)-4,5-bis(p-methoxyphenyl)imidazole] | 10 | – | 0.45 | 150 | – | 780 | – | – | – | – | – | – | –
11 | COc1ccc(-c2nc(C(F)(F)F)[nH]c2-c2ccc(OC)cc2)cc1 [Compound 11, 2-Trifluormethyl-4,5-bis(p-methoxyphenyl)imidazole, reference compound] | 75 | – | – | 25 | – | 450 | – | weaker analgesic activity | higher toxicity | – | – | – | –
12 | COc1ccc(-c2nc(C(C)C)[nH]c2-c2ccc(OC)cc2)cc1 [Compound 12, 2-Isopropyl-4,5-bis(p-methoxyphenyl)imidazole, reference compound] | 200 | > 2000 | – | – | – | – | – | much weaker analgesic activity | – | – | – | – | –
13 | COc1ccc2c(c1)c(CC(=O)O)c(C)n2C(=O)c1ccc(Cl)cc1 [Compound 13, Indomethacin, reference compound] | – | 21 | – | – | – | – | 0,65 µg/10 µg AA | – | – | 8 | 0.36 | 28 | 9.7
14 | COc1ccc2cc([C@H](C)C(=O)O)ccc2c1 [Compound 14, Naproxen, reference compound] | – | – | 1.6 | 10 | – | – | 0,49 µg/10 µg AA | – | – | – | – | – | 19.5
15 | CC(=O)Oc1ccccc1C(=O)O [Compound 15, Acetyl salicylic acid, reference compound] | – | 1700 | – | – | – | – | 7,61 µg/10 µg AA | – | – | 100 | – | 350 | 340
